Data reported in patent US6790971B1, “19-Nor-steroids” (Aventis Pharma S.A., priority 1989, dated 2004).

Columns and labels:
[1] = target: T1, Glucocorticoid Receptor of Rat Thymus (Rattus norvegicus, UniProt P06536); experiment: Relative affinity of the bond, glucocorticoid receptor (tritiated dexamethasone displacement); assay type: binding; conditions: RAB=100(CH)/(CX); for Relative affinity of the bond (RAB), Glucocoticoid, 4 H: incubation 4 H at 0° C.; for Relative affinity of the bond (RAB), Glucocoticoid, 24 H: incubation 24 H at 0° C.
T1 construct: The thymuses were removed and homogenized at 0° C; from tissue; host or cells: thymus cytosol (105,000 g supernatant) of adrenalectomised male Sprague-Dawley rats
T1 sequence (P06536 1-795): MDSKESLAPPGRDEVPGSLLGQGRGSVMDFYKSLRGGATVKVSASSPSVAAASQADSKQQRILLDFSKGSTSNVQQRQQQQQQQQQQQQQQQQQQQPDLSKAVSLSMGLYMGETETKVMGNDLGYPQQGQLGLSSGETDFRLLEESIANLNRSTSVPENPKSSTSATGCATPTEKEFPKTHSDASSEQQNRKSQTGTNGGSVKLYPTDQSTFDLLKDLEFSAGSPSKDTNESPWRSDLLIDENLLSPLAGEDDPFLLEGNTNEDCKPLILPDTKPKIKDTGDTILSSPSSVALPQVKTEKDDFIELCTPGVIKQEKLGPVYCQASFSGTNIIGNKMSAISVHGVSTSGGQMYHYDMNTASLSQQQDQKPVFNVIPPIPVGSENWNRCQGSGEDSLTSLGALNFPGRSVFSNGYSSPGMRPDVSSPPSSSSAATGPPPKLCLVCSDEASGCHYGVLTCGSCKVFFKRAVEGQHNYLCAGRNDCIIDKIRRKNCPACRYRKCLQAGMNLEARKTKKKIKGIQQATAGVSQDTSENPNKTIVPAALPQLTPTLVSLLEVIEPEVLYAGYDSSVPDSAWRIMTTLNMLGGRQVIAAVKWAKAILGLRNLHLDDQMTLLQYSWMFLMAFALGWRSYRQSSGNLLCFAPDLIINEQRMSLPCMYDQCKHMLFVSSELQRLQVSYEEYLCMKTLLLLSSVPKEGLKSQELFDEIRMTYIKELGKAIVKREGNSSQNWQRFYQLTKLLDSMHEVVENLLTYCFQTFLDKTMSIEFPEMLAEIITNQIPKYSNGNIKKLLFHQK
Experimental: Glucocorticoid Receptor of Rat Thymus:
Male Sprague Dawley EOPS rats weighing 160 to 200 g were subjected to suprarenalectomy and 4 to 8 days after this intervention, the animals were killed. The thymuses were removed and homogenized at 0° C. in a 10 mM Tris, 0.25 M saccharose, 2 mM dithiothreitol, HCL pH 7.4 buffer, with the aid of a Potter polytetrafluoroethylene-glass (1 g of tissue for 10 ml of TS). The homogenate was subsequently ultracentrifuged (105,000 g×90 min) at 0° C. and aliquots of the supernatant were incubated at 0° C. for a time (t) with a constant concentration (T) of tritiated dexamethasone in the presence of increasing concentrations (0-2,500.10^−9 M) either of cold dexamethasone, or of cold product to be tested. The concentration (B) of the bound tritiated dexamethasone was measured in each incubate by the adsorption technique on dextran carbon.
Calculation of the Relative Affinty of the Bond
The calculation of the Relative Affinity of the Bond (RAB) was identical for all the receptors. The following 2 curves were traced; the percentage of the bound tritiated hormone [formula]
was a function of the logarithm of the concentration of the cold reference hormone and [formula]
as a function of the logarithm of the concentration of the cold product tested.
One determined the straight line of the equation [formula]
The intersections of the straight line I50 and of the curves make it possible to evaluate the concentrations of the cold reference hormone (CH) and of the tested cold product (CX) which inhibit to an extend of 50% the binding of the tritiated hormone upon the receptor. The relative affinity of the bond (RAB) of the tested product is determined by the equation

[2] = test system: MCF-7 mammary tumoral cells; experiment: Anti-proliferative activity upon the growth of MCF-7 cells (DNA measurement with DABA); assay type: cell-based; conditions: 6 days, inhibition of the increase of DNA, read-out: concentration which inhibited the growth of MCF7 to an extent of 50% (IC50)
Experimental: B. Anti-proliferative activity of the products of the invention upon the growth of MCF-7 mammary tumoral cells.
The MCF-7 strains were kept under culture in FCS(1) medium at 37° C. under a humid atmosphere containing 5% CO2 and the cells at subconfluence were harvested by trypsination (0.05% trypsine, 0.02% EDTA), then rinsed by gentle centrifugation. A sample of the cells in suspension was counted on Malassez cell.
The cells, resuspended in FCS medium, were seeded at a rate of 30,000 cells per pit in multi-pit plates (24 pits of 2.5 cm^2) and twenty four hours after seeding (DO), the product to be tested was added to the medium in ethanolic solution (final concentration in ethanol: 0.1%), at a concentration of 10^−12 to 10^−6 M, the control pits receiving the same concentration of ethanol. The media were renewed every 48 hours and at the end of the experiment (D6), the medium was sucked off and the cells were immediately fixed with 150 microliters of methanol to estimate the DNA. The anti-proliferative activity of the products was evaluated by their capacity to inhibit the increase of DNA.
The DNA was measured by a fluorimetric method employing DABA (3,5-diaminobenzoic acid) (2): 150 microliters of DABA were added to each of the pits and the plates were then incubated for 45 minutes at 56° C., then 2 ml of 1 N HCl were added. The fluorescence was measured with the aid of a fluorimeter (length of the exiting wave: 408 nm, length of the emitting wave: 501 nm). The quantity of DNA per pit was evaluated with reference to a standard scale obtained by treating a standard DNA from calf thymus under the same conditions.
The concentration in nM which inhibited the growth of MCF7 to an extent of 50% (IC50) was determined in the manner indicated below:
(1) The fetal calf serum (FCS) culture medium was prepared as follows: MEM medium (minimal essential medium) to which were added:
Non-essential amino acids (GIBCO),
Peni-strepto (100 U/ml penicillin, 0.1 mg/ml streptomycin),
Fetal calf serum containing no steroids (10% final concentration).
(2) Puzas and Goodman, Analytical Biochemistry, Vol. 86, pp. 50, 1978.

Relative affinity of the bond (RAB), Glucocoticoid, 4 H [1] | Relative affinity of the bond (RAB), Glucocoticoid, 24 H [1] | IC50 [2] | Compound
7 | 14 | – | CC#C[C@]1(O)CC[C@H]2[C@@H]3CCC4=CC(=O)CCC4=C3[C@@H](CCCCCCCCCCC(=O)NCCCC)C[C@@]21C [Example 22, N-butyl-17β-hydroxy-3-oxo-17α-(1-propynyl)-11β-Δ^4,9-estradiene undecanamide]
2 | 3 | 0.06 nM | CCCCN(C)C(=O)CCCCCCCCCCC[C@H]1C[C@]2(C)[C@@H](O)CC[C@H]2[C@@H]2CCc3cc(O)ccc3[C@@H]12 [Example 24, N-butyl-3,17β-dihydroxy-N-methyl-11β-Δ^1,3,5(10)-estratriene dodecanamide]
3 | 6 | – | CN(Cc1ccccc1)C(=O)CCCCCCCCCC[C@H]1C[C@]2(C)[C@@H](O)CC[C@H]2[C@@H]2CCC3=CC(=O)CCC3=C12 [Example 17, N-benzyl-17β-hydroxy-N-methyl-3-oxo-11β-Δ^4,9-estradiene undecanamide]
7 | 7 | 0.5 nM | CCCCN(C)C(=O)CCCCCCCCCC[C@H]1C[C@]2(C)[C@@H](O)CC[C@H]2[C@@H]2CCc3cc(O)ccc3[C@@H]12 [Example 13, N-Butyl-3,17β-Dihydroxy-N-Methyl-11β-Δ^1,3,5(10)-Estratriene-Undecanamide]
2 | 2.6 | 0.02 nM | N-butyl-3,17β-dihydroxy-N-methyl-19-nor-11β-Δ^1,3,5(10)-pregnatrien-20-yn undecanamide [Example 21]
12 | 11 | 0.02 nM | CC(C)N(C)C(=O)CCCCCCCCCC[C@H]1C[C@]2(C)[C@@H](O)CC[C@H]2[C@@H]2CCc3cc(O)ccc3[C@@H]12 [Example 16, 3,17β-dihydroxy-N-methyl-N-isopropyl-11β-Δ^1,3,5(10)-estratriene undecanamide]

Compound | Relative affinity of the bond (RAB), Glucocoticoid, 4 H [1] | Relative affinity of the bond (RAB), Glucocoticoid, 24 H [1] | IC50 [2]
CN(C)CCN(C)C(=O)CCCCCCCCCC[C@H]1C[C@]2(C)[C@@H](O)CC[C@H]2[C@@H]2CCC3=CC(=O)CCC3=C12 [Example 19, N-[2-(dimethylamino)-ethyl]-17β-hydroxy-N-methyl-3-oxo-11β-Δ^4,9-estradiene undecanamide] | 6 | 4.6 | –
